Read-outs that look alike come from different tables or passages of the source.
What was measured:
[1] = system: MUC5A/C secretion in hCLCA1 expressing H292 cells; assay: MUC5A/C secretion by ELLA in hCLCA1 expressing H292 cells; assay type: cell-based, human; parameters: key to ELLA: (+) = inhibition; (−) = no inhibition
[2] = system: H292 clone 15 cells; assay: Alamar Blue cytotoxicity; settings: H292 clone 15 cells; 48 hours; average of 3 experiments
[3] = system: H292 clone 15 cells; assay: ELLA for MUC5AC, H292 clone 15 cells (Example 11); assay type: cell-based, human; settings: Homo sapiens, NCI-H292; MUC5AC in conditioned media; 48 hours; average of 3 experiments
Protocol: ELLA (Enzyme-Linked Lectin Assay) was used to determine the inhibitory effect of compounds on mucus production by H292 clone 15 cells. H292 clone 15 cells, a subclone from human pulmonary mucoepidermoid carcinoma cells overexpressing hCLCA1, were grown to confluent, followed by incubation with increasing concentrations of compounds for 48 hours. Conditioned media were collected and MUC5AC (the major secretory mucin in lungs) content was determined by ELLA measurement as described below. 96 well microtiter plates were coated with a mouse monoclonal antibody against human MUC5AC (1-13M1, NeoMarkers), then incubated with test conditioned media. Bound MUC5AC was detected by horseradish peroxidase-conjugated soybean lectin that has a high affinity towards highly-glycosylated proteins such as MUC5AC. Conversion of peroxidase substrate TMB (Tetramethylbenzidine Base) was quantified by reading at 450 nm. O.D. (optical density) readings were plotted against concentrations of compounds. Linear regression was used to derive the concentration at which O.D. was reduced by 50% (IC50) when compared to vehicle-treated cells.

[4] = system: activated Caco2 cells; assay: PAS staining for mucin in activated Caco2 cells
[5] = system: activated Caco2 cells; settings: Caco-2
[6] = system: NCI-H292/hCLCA1 cells; assay: AB/PAS staining of mucous glycoconjugates in NCI-H292/hCLCA1 cells; assay type: cell-based, human; settings: NFA 100 μM, MFA 125 or 250 μM, talniflumate 12.5, 25 or 50 μM; vs untreated cells
Protocol: For the determination of mucous glycoconjugate production, NCI-H292/ctl and NCI-H292/hCLCA1 (AAF 15) cells were cultured in 24-well plates for 3 days. Cells were then fixed with Formalin and mucous glycoconjugates were visualized by AB/PAS staining (Sigma). […] For chloride channel blockage studies, cells were cultured in the presence of niflumic acid (NFA) (Sigma) at 100 μM concentration, mefanamic acid (MFA) at 125 or 250 μM or talniflumate at 12.5, 25 or 50 μM, or media alone.
For the determination of mucous glycoconjugate production, NCI-H292/hCLCA1 cells were cultured in 24-well plates for 3 days with at concentrations of 0 to 150 μM of the talniflumate enantiomers or media alone (control). Cells were then fixed with Formalin and mucous glycoconjugates were visualized by AB/PAS staining (Sigma). […] In this assay both enantiomers were seen to inhibit muco-glycoconjugate production at concentrations>40 μM.

[7] = system: murine chloride channel, mCLCA1; assay: Patch clamp chloride current, HEK293 cell expressing mCLCA1; assay type: cell-based; settings: for Chloride Current: + ionomycin + Ca
Protocol: A HEK293 cell transfected with a plasmid expressing a murine chloride channel, mCLCA1, was patch clamped and chloride current was measured over a range of voltages (V, left column) and the results are shown in Table 3 below. Each row lists currents invoked at a particular positive voltage in the absence (−) or presence (+) of ionomycin and calcium, and in the presence of an indicated concentration of diclofenac (μM). Substantial current was invoked by the addition of 2 μM ionomycin and 2 mM calcium-compare the first two columns-indicating activation of mCLCA1 by the ionomycin/calcium treatment. For example, at 100 mV of positive voltage, the chloride current was increased from 39 nA/pF to 105 nA/pF.

**Q.** With O=C1OC(OC(=O)c2cccnc2Nc2cccc(C(F)(F)F)c2)c2ccccc21 (single isomer, unassigned; enantiomer 1) [enantiomer 1] as the compound, how does the “IC50, inhibition of MUC5A/C secretion” value ([1]; NCI-H292/hCLCA1 cells, 0 through 150 μM, 48 hours, FIG. 26) read?
**A.** The value was “not inhibitory”.

**Q.** With O=C1OC(OC(=O)c2cccnc2Nc2cccc(C(F)(F)F)c2)c2ccccc21 (single isomer, unassigned; enantiomer 2) [enantiomer 2] as the compound, how does the IC50 ([1]; NCI-H292/hCLCA1 cells, 0 through 150 μM, 48 hours, FIG. 26, read-out: IC50, inhibition of MUC5A/C secretion) read?
**A.** The IC50 was 40 µM.

**Q.** COC(=O)c1cccnc1Nc1cccc(C(F)(F)F)c1 [1 (MSI 2213), Niflumic acid methyl ester] was tested. Which ELLA ([1]; Table 2, mucin production) did it give?
**A.** Its ELLA is “−”.

**Q.** Which “Est. LD50 (Alamar Blue)” value [2] does the source give for O=C(CC1OC(=O)c2ncccc21)c1cccnc1Nc1cccc(C(F)(F)F)c1 (stereo not shown) [Compound 1] here?
**A.** The value was 11 µM.

**Q.** And the IC50 [3]?
**A.** The IC50 was 2 µM.

**Q.** With COC(=O)c1ccccc1/C=C/C(=O)c1cccnc1Nc1cccc(C(F)(F)F)c1 [Compound 2] as the compound, how does the “Est. LD50 (Alamar Blue)” value [2] read?
**A.** Its value is 16 µM.

**Q.** And the IC50 [3]?
**A.** The IC50 was 4 µM.

**Q.** Which results are given for Cc1c(Cl)cccc1Nc1ccccc1C(=O)CC1OC(=O)c2ccccc21 (stereo not shown) [Compound 3]?
**A.** Est. LD50 (Alamar Blue) [2]: 19 µM; IC50 [3]: 1.2 µM

**Q.** How did the “Est. LD50 (Alamar Blue)” value [2] turn out when Cc1c(Cl)cccc1Nc1ccccc1C(=O)CCc1ccccc1C(=O)O [Compound 4] was run?
**A.** The value was 27 µM.

**Q.** What about the IC50 [3] of the same compound?
**A.** Its IC50 is 1.6 µM.

**Q.** Which results are given for Cc1cccc(Nc2ccccc2C(=O)CC2OC(=O)c3ccccc32)c1C (stereo not shown) [Compound 5]?
**A.** Est. LD50 (Alamar Blue) [2]: 35 µM; IC50 [3]: 4 µM

**Q.** How did the “Est. LD50 (Alamar Blue)” value [2] turn out when Cc1cccc(Nc2ccccc2C(=O)CCc2ccccc2C(=O)O)c1C [Compound 6] was run?
**A.** The value was 27 µM.

**Q.** And the IC50 [3]?
**A.** Its IC50 is 3 µM.

**Q.** O=C(CC1OC(=O)c2ccccc21)c1ccccc1Nc1cccc(C(F)(F)F)c1 (stereo not shown) [Compound 7] was tested. Which “Est. LD50 (Alamar Blue)” value [2] did it give?
**A.** Its value is 69 µM.

**Q.** What about the IC50 [3] of the same compound?
**A.** Its IC50 is 24 µM.

**Q.** What does the source list for O=C(O)c1ccccc1CCC(=O)c1ccccc1Nc1cccc(C(F)(F)F)c1 [Compound 8]?
**A.** Est. LD50 (Alamar Blue) [2]: 30 µM; IC50 [3]: 10 µM

**Q.** What does the source list for O=C1OC(CC(=O)c2cccnc2Oc2ccccc2)c2ccccc21 (stereo not shown) [Compound 9]?
**A.** Est. LD50 (Alamar Blue) [2]: 43 µM; IC50 [3]: 5 µM

**Q.** Which “Est. LD50 (Alamar Blue)” value [2] does the source give for O=C(O)c1ccccc1CCC(=O)c1cccnc1Oc1ccccc1 [Compound 10] here?
**A.** The value was 885 µM.

**Q.** What about the IC50 [3] of the same compound?
**A.** The IC50 was 44 µM.

**Q.** How did the “Est. LD50 (Alamar Blue)” value [2] turn out when O=C1OC(CC(=O)c2cccnc2Oc2cccc(Cl)c2)c2ccccc21 (stereo not shown) [Compound 11] was run?
**A.** The value was 23 µM.

**Q.** And the IC50 [3]?
**A.** The IC50 was 2 µM.

**Q.** O=C1OC(CC(=O)c2cccnc2Oc2ccc(F)cc2F)c2ccccc21 (stereo not shown) [Compound 12] was tested. Which “Est. LD50 (Alamar Blue)” value [2] did it give?
**A.** The value was 22 µM.

**Q.** What about the IC50 [3] of the same compound?
**A.** The IC50 was 1.9 µM.

**Q.** For O=C1OC(CC(=O)c2cccnc2Oc2cccc(Cl)c2Cl)c2ccccc21 (stereo not shown) [Compound 13], which “Est. LD50 (Alamar Blue)” value [2] is on record?
**A.** The value was 10 µM.

**Q.** And the IC50 [3]?
**A.** The IC50 was 1 µM.

**Q.** How did the “Est. LD50 (Alamar Blue)” value [2] turn out when O=C1OC(CC(=O)c2cccnc2Oc2cccc(Br)c2)c2ccccc21 (stereo not shown) [Compound 14] was run?
**A.** Its value is 16 µM.

**Q.** What about the IC50 [3] of the same compound?
**A.** The IC50 was 2.3 µM.

**Q.** O=C(CC1OC(=O)c2ccccc21)c1ccccc1Sc1ccccc1Cl (stereo not shown) [Compound 15] was tested. Which “Est. LD50 (Alamar Blue)” value [2] did it give?
**A.** The value was 15 µM.

**Q.** What about the IC50 [3] of the same compound?
**A.** Its IC50 is 2.5 µM.

**Q.** How did the “PAS positive staining mucin glycoconjugates” value ([4]; activated Caco2 cells, 100 μm for NFA and 300 μm for DIDS, vs untreated cells) turn out when O=S(=O)(O)c1cc(N=C=S)ccc1C=Cc1ccc(N=C=S)cc1S(=O)(=O)O [DIDS, 4,4′-diisothiocyanostilbene-2,2′-disulfonic acid] was run?
**A.** Its value is “significantly fewer positive staining mucin glycoconjugates”.

**Q.** Which “Mucin production by activated Caco2 cells” value [5] does the source give for O=C(O)c1ccccc1Nc1cccc(C(F)(F)F)c1 [Flufenamate] here?
**A.** Its value is “inhibited”.

**Q.** Which “Mucin production by activated Caco2 cells” value [5] does the source give for Cc1ccc(Cl)c(Nc2ccccc2C(=O)O)c1Cl [Meclofenamate] here?
**A.** The value was “partially”.

**Q.** With Cc1cccc(Nc2ccccc2C(=O)O)c1C [Mefenamate] as the compound, how does the “PAS positive staining muco-glycoconjugates” value [6] read?
**A.** Its value is “significantly fewer positive staining muco-glycoconjugates”.

**Q.** What about the “Mucin production by activated Caco2 cells” value [5] of the same compound?
**A.** The value was “partially”.

**Q.** Which “Mucin production by activated Caco2 cells” value [5] does the source give for COc1ccc2cc([C@H](C)C(=O)O)ccc2c1 [Naproxen] here?
**A.** Its value is “ineffective”.

**Q.** Which “Inhibition of MUC5A/C secretion / mucin production (figure legends)” value ([1]; hCLCA1 expressing H292 cells, 48 hours) does the source give for CS(=O)(=O)Nc1ccc([N+](=O)[O-])cc1Oc1ccccc1 [Nimesulide] here?
**A.** Its value is “inhibition of MUCSA/C secretion”.

**Q.** For CC1=C(CC(=O)O)c2cc(F)ccc2/C1=C\c1ccc([S+](C)[O-])cc1 (stereo not shown) [Sulindac], which “Mucin production by activated Caco2 cells” value [5] is on record?
**A.** The value was “ineffective”.

**Q.** Which “Mucin production by activated Caco2 cells” value ([4]; FIG. 2) does the source give for Cc1c(Cl)cccc1Nc1ccccc1C(=O)O [Tolfenamate] here?
**A.** The value was “inhibited”.

**Q.** Which results are given for O=C(O)Cc1ccccc1Nc1c(Cl)cccc1Cl [diclofenac]?
**A.** Inhibition of chloride channel activity ([7]; diclofenac 5 μM to 50 μM): did not inhibit chloride channel activity; Chloride Current ([7]; diclofenac 5 μM, 0 mV): 20 nA/pF; Chloride Current ([7]; diclofenac 5 μM, 20 mV): 36 nA/pF; Chloride Current ([7]; diclofenac 5 μM, 40 mV): 53 nA/pF; Chloride Current ([7]; diclofenac 5 μM, 60 mV): 72 nA/pF; Chloride Current ([7]; diclofenac 5 μM, 80 mV): 92 nA/pF; Chloride Current ([7]; diclofenac 5 μM, 100 mV): 115 nA/pF; Chloride Current ([7]; diclofenac 20 μM, 0 mV): 20 nA/pF; Chloride Current ([7]; diclofenac 20 μM, 20 mV): 34 nA/pF; Chloride Current ([7]; diclofenac 20 μM, 40 mV): 51 nA/pF; Chloride Current ([7]; diclofenac 20 μM, 60 mV): 69 nA/pF; Chloride Current ([7]; diclofenac 20 μM, 80 mV): 88 nA/pF; Chloride Current ([7]; diclofenac 20 μM, 100 mV): 109 nA/pF; Chloride Current ([7]; diclofenac 50 μM, 0 mV): 19 nA/pF; Chloride Current ([7]; diclofenac 50 μM, 20 mV): 33 nA/pF; Chloride Current ([7]; diclofenac 50 μM, 40 mV): 48 nA/pF; Chloride Current ([7]; diclofenac 50 μM, 60 mV): 66 nA/pF; Chloride Current ([7]; diclofenac 50 μM, 80 mV): 85 nA/pF; Chloride Current ([7]; diclofenac 50 μM, 100 mV): 106 nA/pF

Source: US20050249675A1, “Mucin synthesis inhibitors” (priority 2003, published 2005)
